Data published in publication PMC11513854, “De novo GTP synthesis is a metabolic vulnerability for the interception of brain metastases” (Cell Reports Medicine, 2024).

Experiments:
patient-derived BMICs [1] = test: Cell proliferation assay over time, PrestoBlue; format: cell-based, human; settings: IC80, PrestoBlue normalized to vehicle
Protocol: Cell proliferation assays were conducted using the same protocol, except for drugs being plated at their IC80 for a four-day incubation period. All results were illustrated and analyzed for significance using GraphPad Prism 8 software.

melanoma-BM = test: Pre-treatment melanoma-BM PDX model; format: in vivo, mice; settings: pre-treated BMICs
From the text: (§1) We decided to focus primarily on lung-BM for our in vivo experiments because they account for over 50% of all BM cases. […] This phenotype was also recapitulated in a melanoma-BM PDX model (Figures S2A and S2B).
Fig S2. PDX m odels m im ic patient data, related to Figure 3. a, Representative IVIS bioluminescence images of […]
imaging system. Comparisons were made via a two-tailed unpaired t-test and data are presented as mean ± SED from 4-5 technical replicates. […]
following intracranial engraftment of patient-der ived BMICs. Comparisons were made via a Log-rank (Mantel-Cox) test, P value is indicated. c, CRUK0748, a patient- derived lung tumor cell line that metastasized to the brain of the patient it was retrieved from, was confirmed to metastasize to the brains of mice in our animal models following intrathoracic injection. CRUK0733, a patient-derived lung tumor cell line that has not metastasized to the brain of […]
anti-proliferative effect on BMICs isolated from the brains of mice following CRUK0748 metastasis to the brain.
(1 picture or pasted object on this page, not shown here)

patient-derived BMICs [2] = test: Pre-treatment PDX model, intracranial engraftment of lung-BMICs; format: in vivo, mice; settings: vs placebo
From the text: as §1
Comparisons were made via a two-tailed unpaired t test and data are presented as mean ± SD from 4 to 5 technical replicates. p value is indicated. (C) Schematic of experimental timeline. […] IVIS, in vivo imaging system. Comparisons were made via a two-tailed unpaired t test and data are presented as mean ± SD from 4 to 5 technical replicates. p value is indicated. […] Comparisons were made via a log rank (Mantel-Cox) test, p value is indicated. (G) Quantification of human cells in mouse brains by flow cytometry at the humane endpoint. […]
All experimental procedures involving animal work has been reviewed and approved by McMaster University Animal Research Ethics Board. […] Mice are monitored weekly for signs of illness until endpoint.
Bioluminescent imaging was performed using an IVIS Spectrum In Vivo Imaging System (PerkinElmer) as per the manufacturer’s instructions. Imaging and quantification of signals is controlled by the analysis software Living Image (Xenogen). […] Regions of interest were quantified by bioluminescent signal (photons per second) using Living Image software for a standardized comparison between images.

patient-derived BMICs [3] = test: Migration (wound healing) assay; format: cell-based, human; settings: IC80
Protocol: Cells were plated at a density of 15,000 to 25,000 cells (depending upon the cell line) per 70 μL media supplemented with 10% FBS into two separate wells of a bi-silicon structure within a 48-well plate. The cells were allowed to adhere for 24 h at 37C within a humidified atmosphere of 5% CO2 to form a monolayer of cells. After 24 h the silicon inserts were detached from the 48-well plate, leaving behind two monolayers of cells that are separated by an empty ‘wound’ and enabling of cell migration into the exclusion zone. […] The plate was inserted into the Incucyte in vitro imaging system where the ‘wound’ was imaged periodically over time. The Incucyte scan type chosen was 300ms adherent cell-by-cell alongside phase and green imaging channels within a 10× objective. The images were uploaded to ImageJ where the wound area was calculated to determine the wound coverage percentage.

[4] = system: patient-derived lung-BMICs; test: Intracardiac injection of lung-BMICs, daily oral gavage treatment; format: in vivo, mice; settings: 100 mg/kg daily oral gavage, vs placebo
From the text: We next wondered whether a drug used to slow down, or block, BM needed to be BBB penetrant and aimed to uncover whether MPA could target pre-metastatic BMICs in the circulation in a more clinically relevant in vivo treatment model.
All experimental procedures involving animal work has been reviewed and approved by McMaster University Animal Research Ethics Board. Non-obese diabetic-severe combined immunodeficient IL2r γ ^null (NSG) mice are used for all experiments. Equal numbers of male and female mice were used for all experiments. Healthy mice were 6–8 weeks at time of use. Mice are anesthetized by gas anesthesia using isoflurane (4% induction, 2.5% maintenance) before procedure. Cells were engineered to express firefly luciferase and were injected intracardially, orthotopically, or intracranially as previously described.[13]^,[14]^,[63]^,[64]^,[65] […] Mice are monitored weekly for signs of illness until endpoint.
Fig S3. MPA m ust cross the blood brain barrier to eff ectively slow the progression of BM over tim e, related to Figures 3 and 4. a, Mice were either orthotopically (intratho racically) or intracardiac injected with lung BMICs, […]
to placebo, but (f) had the same number of human cells detected in their brains following humane endpoint by flow cytometry. n.s. = not significant. […]

normal brain cells = test: Dose-response curves of control normal brain cells; format: cell-based, human; settings: 72-h treatment, same concentrations (below 10 μM)
From the text: PrestoBlue readout is normalized to vehicle-treated cells. Data are presented as mean ± SD from 4 technical replicates. (C) Assessment of cell viability of patient-derived BMICs treated with MPA or its vehicle. PrestoBlue readout is normalized to vehicle-treated cells, p < 0.0001. […] Sphere count normalized to vehicle-treated cells, p < 0.0001. (F and G) Percent wound closure of DMSO control vs. MPA-treated cells expressed as an average of replicates (n = 3) and images are taken at 10× magnification. Wound closure (represented by dotted white line) is measured using ImageJ on Incucyte-derived images, p values are indicated. Scale bars are 400 μm. See also Videos S1, S2, S3, and S4. Comparisons of cell viability, sphere formation, and wound closure were made via a two-tailed unpaired t test and data are presented as mean ± SD from 3 to 4 technical replicates. […]
Dose-response assays were conducted using the same protocol apart from drugs being plated using 2-fold serial dilutions (20 μM - 39 nM) as previously described.[66] The half maximal inhibitory concentration (IC50) is determined by plotting percent cell viability by the logarithmic concentration of drug. IC80 concentrations will be used for subsequent functional assays (cell proliferation, sphere formation), as determined by the following formula: ICF=100−F/F^1/H×IC50 where F = fraction of maximal response and H = hill slope.

[5] = read-out: clinically relevant plasma Cmax concentration; cited from earlier work

**Q.** With `COc1c(C)c2c(c(O)c1C/C=C(\C)CCC(=O)O)C(=O)OC2` [MPA, Mycophenolic acid] as the molecule, how does the “BMIC proliferation over time” value (patient-derived BMICs [1]) read?
**A.** Its value is “inhibits BMIC proliferation over time”.

**Q.** What about the “brain tumor burden and survival phenotype” value (melanoma-BM) of the same molecule?
**A.** Its value is “recapitulated”.

**Q.** What about the brain tumor burden (patient-derived BMICs [2]; BMICs pre-treated at IC80, 2 weeks post-injection, IVIS) of the same molecule?
**A.** The brain tumor burden was “significantly reduced brain tumor burden”.

**Q.** And the survival (patient-derived BMICs [2]; BMICs pre-treated at IC80, intracranial engraftment)?
**A.** Its survival is “survived significantly longer”.

**Q.** And the “migration of patient-derived BMICs” value (patient-derived BMICs [3])?
**A.** Its value is “inhibits the migration”.

**Q.** And the brain tumor burden ([4]; 7 days post-injection)?
**A.** The brain tumor burden was “significantly reduced brain tumor burden”.

**Q.** What about the “difference in brain tumor burden” value ([4]; 14 days post-injection) of the same molecule?
**A.** Its value is “no longer observed”.

**Q.** What about the “toxicity to normal brain cells” value (normal brain cells) of the same molecule?
**A.** The value was “nontoxic”.

**Q.** And the Cmax [5]?
**A.** The Cmax was 10 µM.
